Experimental findings from patent publication US12496310B2, “Compositions and methods for adoptive cell therapy” (MEMORIAL SLOAN KETTERING CANCER CENTER, priority 2017, dated 2025) are described below.

For experiment [1], the system named is HEK293T cells expressing CPG2. The experiment is described as follows: Prodrug treatment of HEK293T cells expressing CPG2 variants. In kind it is cell-based, human. As to the method: Expression of CPG2 without a signal peptide (CPG2nosigp) was employed as a control. HEK293t cells stably transfected with CPG2 variants were exposed to P-AMS (1 μM) for 48 hours and analyzed by bright field microscopy (FIG. 9A). Cells were exposed to varying concentrations of P-AMS and cell viability was analyzed at 48 hr post treatment (FIG. 9B).

Another experiment concerns Human Jurkat T cells. The experiment is described as follows: Prodrug activation by purified recombinant CPG2, Jurkat viability. In kind it is cell-based. The following applies: Jurkat viability at 48 hours. As to the method:
FIG. 4 provides exemplary data showing activation of P-AMS (see FIG. 2) by recombinant CPG2 expressed and purified from E. coli. (A) Human Jurkat T cells were incubated with or without P-AMS in the presence of increasing concentration of purified CPG2. […] (B) Recombinant CPG2 was exposed to various concentrations of glutamated AMS prodrug. Following incubation at 37° C. (0.5, 1, 2, and 4 hr.), the reaction was combined with Amplex® Red (converts free glutamate to a fluorescent species) and fluorescent emission was analyzed using a fluorescence multiwell plate scanner.
The CPG2-pET151 vector was transformed into BL21 star E. coli cells and induced with IPTG. Bacteria were homogenized in a French Press and purified by affinity chromatography over Ni++ beads using standard protocols. Imidazole was exchanged via PBS dialysis and protein was purified via desalting spin columns. The expressed and purified CPG2 was assayed to confirm that the active enzyme was a potent converter of glutamated prodrugs. […] Pro-AMS was activated by recombinant CPG2 in vitro. Human Jurkat T cells were incubated with or without P-AMS in the presence of increasing concentration of purified CPG2. […] (FIG. 4B) Similar enzyme kinetics will be used to assess the characteristics of the enzyme activity for each of the prodrugs similarly. […]

For another experiment, the system named is Jurkat T cells. Conditions: increasing prodrug with CPG2 supernatant, 48 hours.
The subject of a further experiment is SET2 cells. The experiment is described as follows: SET2 viability with prodrug plus recombinant enzyme or enzyme-containing supernatant. In kind it is cell-based. The following applies: SET2, with Beta-lactamase supernatant. On the procedure: Recombinant CPG2 protein was initially synthesized, purified (FIGS. 15A and 15B), and incubated with increasing concentrations of prodrug in a glutamate release assay (FIG. 14C). Mass spectrometry was used to determine that the glutamate moiety was released from all of the glutamate prodrugs.
Cell viability was measured by CellTitre-Glo® luminescence assay.
To determine to respective enzyme output of the Beta-lactamase constructs relative to the previous CPG2 constructs, a quantitative sandwich ELISA was used to determine the concentration (ng/mL) of purified recombinant CPG2, and a quantitative nitrocefin assay was used to determine the concentration (ng/mL) of purified recombinant Beta-lactamase (FIG. 22A). Cell viability was measured by CellTitre-Glo® luminescence in the presence of prodrug (glut-AMS or ceph-AMS) and varying concentrations of purified recombinant CPG2 or Beta-lactamase (FIG. 22B).

Turning to `NS(=O)(=O)OC[C@H]1O[C@@H](n2cnc3c(NC(=O)N[C@@H](CCC(=O)O)C(=O)O)ncnc32)[C@H](O)[C@@H]1O` [P-AMS, ((9-((2R,3R,4S,5R)-3,4-dihydroxy-5-((sulfamoyloxy)methyl)tetrahydrofuran-2-yl)-9H-purin-6-yl)carbamoyl)-L-glutamic acid], in experiment [1] (HEK293T cells expressing CPG intracellularly), the activation of prodrug result is listed as “not activated”. Further, the cell death entry in experiment [1] (stably transfected HEK293T with cell-secreted or transmembrane CPG2, 48 hr) is on record as “significant cell death”. In addition, the “activation by recombinant CPG2 in vitro” value with Human Jurkat T cells was “activated”. Besides, in the experiment on Jurkat T cells, the cell viability entry is listed as “significant decrease in cell viability”.
For `Nc1ncnc2c1ncn2[C@@H]1O[C@H](COS(=O)(=O)NCC2=C(C(=O)O)N3C(=O)[C@@H](NC(=O)Cc4cccs4)[C@H]3SC2)[C@@H](O)[C@H]1O` [ceph-AMS], the cell viability entry in the experiment with SET2 cells is “significant decrease in cell viability”.
